Patent US9139523B2, “5-HT2B receptor antagonists” (Janssen Pharmaceutica, NV, priority 2010, dated 2015)

Tests used:
5HT3A/B = target: T1, 5HT3A/B (Homo sapiens, UniProt O95264+P46098); experiment: Competitive radioligand binding, 5HT3A/B; conditions: HEK293 membranes, 3H-GR65630 0.5 nM; for IC50: read-out: pIC50 5HT3A/B (converted)
T1 construct: expressed in transfected cells; host or cells: HEK293 (membrane fraction)
T1 sequence (P46098 24-478): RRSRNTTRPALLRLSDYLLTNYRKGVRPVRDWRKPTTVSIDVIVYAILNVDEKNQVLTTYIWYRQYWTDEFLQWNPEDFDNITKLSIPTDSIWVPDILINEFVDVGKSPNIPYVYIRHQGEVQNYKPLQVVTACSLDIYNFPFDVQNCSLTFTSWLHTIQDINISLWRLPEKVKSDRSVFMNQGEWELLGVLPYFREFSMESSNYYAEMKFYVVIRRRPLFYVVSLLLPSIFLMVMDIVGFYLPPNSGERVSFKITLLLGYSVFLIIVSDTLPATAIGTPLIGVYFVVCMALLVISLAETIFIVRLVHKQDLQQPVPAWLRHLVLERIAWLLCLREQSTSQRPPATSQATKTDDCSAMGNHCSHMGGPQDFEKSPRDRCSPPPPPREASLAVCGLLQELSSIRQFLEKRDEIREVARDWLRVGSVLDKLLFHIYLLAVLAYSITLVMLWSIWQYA
T1 sequence (O95264 22-441): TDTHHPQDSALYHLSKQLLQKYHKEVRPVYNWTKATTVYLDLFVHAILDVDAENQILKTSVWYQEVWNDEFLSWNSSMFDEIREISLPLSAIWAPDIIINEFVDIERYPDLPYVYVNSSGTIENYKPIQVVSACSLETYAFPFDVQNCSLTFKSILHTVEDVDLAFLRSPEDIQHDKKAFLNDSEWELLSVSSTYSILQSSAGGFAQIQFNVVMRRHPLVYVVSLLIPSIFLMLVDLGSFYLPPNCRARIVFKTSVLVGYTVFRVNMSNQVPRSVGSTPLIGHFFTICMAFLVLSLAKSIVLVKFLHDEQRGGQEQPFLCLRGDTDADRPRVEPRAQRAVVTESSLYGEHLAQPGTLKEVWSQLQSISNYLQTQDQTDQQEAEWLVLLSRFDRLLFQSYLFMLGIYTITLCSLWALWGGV
Description: (§1) Competitive radioligand binding assays were used to determine the affinity of the test compounds for a particular receptor. Various concentrations of the non-labelled test compound were added to the incubation mixture with the membrane fraction, containing the receptor of interest, and a fixed low concentration (nM) of the radioligand. During the incubation the radioligand bound to the receptor, but this was inhibited by the non-labelled test compound in proportion to its binding affinity and concentration.
(§2) Cell lines were established that stably express the human variant of the receptor under investigation after transfection with the appropriate cDNA (Table 1). Transfected cells were grown under standard culture conditions, and membrane fractions were obtained upon centrifugation and homogenisation of the cells. Optimal membrane dilutions for binding studies were determined and aliquots were stored at −70° C. until use. In a 96-well plate format, the appropriate radioligand was added to the membrane preparation containing the receptor under investigation. Compound solutions were prepared in DMSO, and diluted 100-fold into the multiwell plate to a final test concentration of 10^−9 to 10^−5 M. After incubation with the test compound, the unbound radioligand was removed by filtration on G/F filters with a Filtermate 96. Microscint™ was added to the washed filter plates and the radioactivity bound to the receptor was measured by liquid scintillation counting in a TopCount (Packard). To measure the Non-Specific Binding (NSB), a high concentration of the non-radiolabeled ligand was added to wells containing the membrane fraction and the radioligand.
(§3) Using in house developed software, a best-fit curve was fitted by a minimum sum of squares method to the plot of % inhibition vs. concentration of the test compound. From this, the pIC50 value (inhibitory concentration causing 50% displacement of specific binding) was determined, as well as an estimate of the slope of the plot (Hill coefficient).

Alpha2A = target: T2, Alpha2A (Homo sapiens, UniProt P08913); experiment: Competitive radioligand binding, Alpha2A; conditions: CHO membranes, 3H-rauwolscine 1 nM; for IC50: read-out: pIC50 Alpha2A (converted)
T2 construct: expressed in transfected cells; host or cells: CHO (membrane fraction)
T2 sequence (P08913 1-465): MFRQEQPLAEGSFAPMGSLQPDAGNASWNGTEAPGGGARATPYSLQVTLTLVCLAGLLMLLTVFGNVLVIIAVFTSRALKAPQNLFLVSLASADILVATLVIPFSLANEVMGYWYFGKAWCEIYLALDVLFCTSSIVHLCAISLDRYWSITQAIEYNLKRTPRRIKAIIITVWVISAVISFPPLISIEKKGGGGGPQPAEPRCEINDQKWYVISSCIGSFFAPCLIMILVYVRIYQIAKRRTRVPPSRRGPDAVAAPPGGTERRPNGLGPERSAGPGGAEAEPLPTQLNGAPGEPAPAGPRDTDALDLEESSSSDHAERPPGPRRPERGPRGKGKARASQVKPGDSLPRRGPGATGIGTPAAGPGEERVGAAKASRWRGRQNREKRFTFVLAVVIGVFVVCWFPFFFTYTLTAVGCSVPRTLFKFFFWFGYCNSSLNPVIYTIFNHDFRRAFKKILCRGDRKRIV
Description: as §1, §2

Alpha1A = target: T3, Alpha1A (Homo sapiens, UniProt P35348); experiment: Competitive radioligand binding, Alpha1A; conditions: CHO membranes, 3H-prazosin 0.25 nM; read-out: pIC50 Alpha1A (converted)
T3 construct: expressed in transfected cells; host or cells: CHO (membrane fraction)
T3 sequence (P35348 1-466): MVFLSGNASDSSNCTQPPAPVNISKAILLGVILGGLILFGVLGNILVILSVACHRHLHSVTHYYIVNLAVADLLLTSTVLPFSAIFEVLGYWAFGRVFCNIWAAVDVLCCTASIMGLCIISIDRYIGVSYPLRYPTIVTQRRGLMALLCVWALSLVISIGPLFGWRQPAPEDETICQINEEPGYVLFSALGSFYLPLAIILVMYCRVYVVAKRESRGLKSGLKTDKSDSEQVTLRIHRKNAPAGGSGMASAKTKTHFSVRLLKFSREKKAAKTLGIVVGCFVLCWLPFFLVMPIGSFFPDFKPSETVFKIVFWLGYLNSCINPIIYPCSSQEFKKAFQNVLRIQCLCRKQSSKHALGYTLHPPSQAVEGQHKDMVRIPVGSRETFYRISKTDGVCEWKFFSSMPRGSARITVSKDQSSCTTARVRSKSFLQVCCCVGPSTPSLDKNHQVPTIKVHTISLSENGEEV
Description: as §1, §2, §3

D2L = target: T4, D2L (Homo sapiens, UniProt P14416); experiment: Competitive radioligand binding, D2L; conditions: CHO membranes, 3H-spiperone 0.2 nM; for IC50: read-out: pIC50 D2L (converted)
T4 construct: expressed in transfected cells; host or cells: CHO (membrane fraction)
Description: as §1, §2, §3

5HT2A = target: T5, 5HT2A (Homo sapiens, UniProt P28223); experiment: Competitive radioligand binding, 5HT2A; conditions: NIH3T3 membranes, 3H-ketanserin 2 nM; read-out: pIC50 5HT2A (converted)
T5 construct: expressed in transfected cells; host or cells: NIH3T3 (membrane fraction)
Description: as §1, §2
From this, the pIC50 value (inhibitory concentration causing 50% displacement of specific binding) was determined, as well as an estimate of the slope of the plot (Hill coefficient).

T5 sequence (P28223 whole entry): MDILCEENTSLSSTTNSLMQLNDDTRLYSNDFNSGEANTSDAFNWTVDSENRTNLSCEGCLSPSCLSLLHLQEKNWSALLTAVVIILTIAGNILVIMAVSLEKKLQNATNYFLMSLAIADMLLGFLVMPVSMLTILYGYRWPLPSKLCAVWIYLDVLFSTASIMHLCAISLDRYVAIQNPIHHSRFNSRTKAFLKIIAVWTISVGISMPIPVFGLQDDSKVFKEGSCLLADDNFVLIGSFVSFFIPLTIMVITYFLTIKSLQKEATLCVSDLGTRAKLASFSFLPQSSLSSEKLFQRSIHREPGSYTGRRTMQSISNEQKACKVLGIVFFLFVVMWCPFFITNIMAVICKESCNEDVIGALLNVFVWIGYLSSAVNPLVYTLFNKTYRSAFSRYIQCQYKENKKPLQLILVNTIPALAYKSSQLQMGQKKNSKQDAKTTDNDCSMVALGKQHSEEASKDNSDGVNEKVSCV
T4 sequence (P14416 whole entry): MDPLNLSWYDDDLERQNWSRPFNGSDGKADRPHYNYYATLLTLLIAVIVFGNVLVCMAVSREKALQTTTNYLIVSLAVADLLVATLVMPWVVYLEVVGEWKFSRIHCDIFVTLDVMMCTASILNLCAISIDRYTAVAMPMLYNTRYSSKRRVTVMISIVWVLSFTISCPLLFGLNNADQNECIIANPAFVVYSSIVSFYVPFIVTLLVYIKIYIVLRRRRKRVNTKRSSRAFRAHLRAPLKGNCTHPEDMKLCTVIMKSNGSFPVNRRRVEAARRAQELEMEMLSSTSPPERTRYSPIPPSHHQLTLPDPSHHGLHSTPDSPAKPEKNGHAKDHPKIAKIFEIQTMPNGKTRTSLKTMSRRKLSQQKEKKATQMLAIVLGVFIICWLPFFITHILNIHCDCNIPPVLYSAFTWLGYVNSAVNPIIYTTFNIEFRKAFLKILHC

COc1cc(N)c(Cl)cc1C(=O)N[C@H]1CCN(CCCOc2ccc(F)cc2)C[C@H]1F (racemic) [(±)-12, cis-4-amino-5-chloro-N-{3-fluoro-1-[3-(4-fluorophenoxy)-propyl]-piperidin-4-yl}-2-methoxybenzamide]
IC50 (5HT3A/B): 6.76 µM | IC50 (Alpha2A): 4.79 µM | IC50 (Alpha1A): 0.447 µM | IC50 (D2L): 4.68 µM | IC50 (5HT2A): 0.363 µM

COc1cc(N)c(Cl)cc1C(=O)N[C@@H]1CCN(CCCOc2ccc(F)cc2)C[C@H]1F (single isomer, unassigned) [(−)-7, trans-4-amino-5-chloro-N-{3-fluoro-1-[3-(4-fluorophenoxy)-propyl]-piperidin-4-yl}-2-methoxybenzamide]
pIC50 5HT3A/B (5HT3A/B): <5 | IC50 (Alpha2A): 7.76 µM | IC50 (Alpha1A): 0.398 µM | IC50 (D2L): 7.94 µM | IC50 (5HT2A): 0.759 µM

COc1cc(N)c(Cl)cc1C(=O)N[C@H]1CCN(CCCOc2ccc(F)cc2)C[C@H]1F (single isomer, unassigned) [(−)-12, cis-4-amino-5-chloro-N-{3-fluoro-1-[3-(4-fluorophenoxy)-propyl]-piperidin-4-yl}-2-methoxybenzamide]
IC50 (5HT3A/B): 2.75 µM | IC50 (Alpha2A): 8.13 µM | IC50 (Alpha1A): 0.331 µM | IC50 (D2L): 4.79 µM | IC50 (5HT2A): 0.49 µM

COc1cc(N)c(Cl)cc1C(=O)NC1CCN(CCCOc2ccc(F)cc2)CC1(F)F (racemic) [(±)-17, 4-amino-5-chloro-N-{3,3-difluoro-1-[3-(4-fluorophenoxy)-propyl]-piperidin-4-yl}-2-methoxybenzamide]
IC50 (5HT3A/B): > 10 µM | IC50 (Alpha2A): > 10 µM | IC50 (Alpha1A): > 10 µM | IC50 (D2L): 10.5 µM | IC50 (5HT2A): 1.95 µM

COc1cc(N)c(Cl)cc1C(=O)N[C@@H]1CCN(CCCOc2ccc(F)cc2)C[C@H]1F (racemic) [(±)-7, trans-4-amino-5-chloro-N-{3-fluoro-1-[3-(4-fluorophenoxy)-propyl]-piperidin-4-yl}-2-methoxybenzamide]
IC50 (5HT3A/B): > 10 µM | IC50 (Alpha2A): 3.63 µM | IC50 (Alpha1A): > 10 µM | IC50 (D2L): 4.57 µM | IC50 (5HT2A): 0.112 µM

COc1cc(N)c(Cl)cc1C(=O)NC1CCN(CCCOc2ccc(F)cc2)CC1(F)F (single isomer, unassigned) [Compound (−)-17, 4-amino-5-chloro-N-{3,3-difluoro-1-[3-(4-fluorophenoxy)-propyl]-piperidin-4-yl}-2-methoxybenzamide]
pIC50 5HT3A/B (5HT3A/B): <5 | pIC50 Alpha2A (Alpha2A): <5 | IC50 (Alpha1A): 7.76 µM | pIC50 D2L (D2L): <5 | IC50 (5HT2A): 1.74 µM

COc1cc(N)c(Cl)cc1C(=O)N[C@H]1CCN(CCCOc2ccc(F)cc2)C[C@H]1F (single isomer, unassigned) [(+)-12, cis-4-amino-5-chloro-N-{3-fluoro-1-[3-(4-fluorophenoxy)-propyl]-piperidin-4-yl}-2-methoxybenzamide]
IC50 (5HT3A/B): > 10 µM | IC50 (Alpha1A): 0.55 µM | pIC50 D2L (D2L): 5.32 | IC50 (5HT2A): 0.324 µM

COc1cc(N)c(Cl)cc1C(=O)N[C@@H]1CCN(CCCOc2ccc(F)cc2)C[C@H]1F (single isomer, unassigned) [(+)-7, trans-4-amino-5-chloro-N-{3-fluoro-1-[3-(4-fluorophenoxy)-propyl]-piperidin-4-yl}-2-methoxybenzamide]
IC50 (5HT3A/B): > 10 µM | IC50 (Alpha2A): > 10 µM | IC50 (Alpha1A): 0.525 µM | IC50 (D2L): 2.75 µM | IC50 (5HT2A): 0.0708 µM

COc1cc(N)c(Cl)cc1C(=O)NC1CCN(CCCOc2ccc(F)cc2)CC1(F)F (single isomer, unassigned; (+)) [(+)-17, 4-amino-5-chloro-N-{3,3-difluoro-1-[3-(4-fluorophenoxy)-propyl]-piperidin-4-yl}-2-methoxybenzamide]
IC50 (5HT3A/B): > 10 µM | IC50 (Alpha2A): > 10 µM | IC50 (Alpha1A): > 10 µM | IC50 (D2L): > 10 µM | IC50 (5HT2A): 2.57 µM
